Reference: patent publication EP1090023B1 (GLAXO GROUP LIMITED, priority 1998, dated 1999)

Columns and labels:
Assay type in all cases: cell-based
[1] = molecular target: T1, adenosine 3 (Homo sapiens, UniProt P0DMS8); assay: Agonist activity against adenosine receptor subtypes, CHO cells with cAMP response element/SPAP reporter (forskolin-enhanced cAMP); conditions: ratio to EC50 of NECA; transfected CHO cells; effect on forskolin-enhanced cAMP via SPAP
T1 sequence (P0DMS8 1-318): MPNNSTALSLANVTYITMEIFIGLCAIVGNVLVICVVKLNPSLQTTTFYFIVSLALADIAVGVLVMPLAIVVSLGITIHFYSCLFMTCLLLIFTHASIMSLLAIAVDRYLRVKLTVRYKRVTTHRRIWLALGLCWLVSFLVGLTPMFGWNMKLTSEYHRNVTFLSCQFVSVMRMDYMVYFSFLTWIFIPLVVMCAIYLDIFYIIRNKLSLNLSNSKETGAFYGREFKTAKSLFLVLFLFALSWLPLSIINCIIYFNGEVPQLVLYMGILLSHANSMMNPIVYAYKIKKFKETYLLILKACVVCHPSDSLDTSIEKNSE
Protocol: (§1) Compounds of the invention were tested for in vitro and in vivo biological activity in accordance with the following screens: • (1) Agonist activity against adenosine 2a, adenosine 1 and adenosine 3 receptor subtypes.
(§2) Agonist selectivity of compounds against other human adenosine receptors was determined using Chinese hamster ovary (CHO) cells transfected with the gene for the relevant human adenosine receptor following a method based on that of Castanon and Spevak, 1994 . The CHO cells were also transfected with cyclic AMP response elements promoting the gene for secreted placental alkaline phosphatase (SPAP) (Wood, 1995). The effect of test compounds was determined by their effects on basal levels of cAMP (A2a) or on forskolin-enhanced cAMP (A1 and A3) as reflected by changes in levels of SPAP. EC50 values for compounds were then determined as a ratio to that of the non-selective agonist N-ethyl carboxamide adenosine (NECA).

[2] = molecular target: T2, adenosine 1 (Homo sapiens, UniProt P30542); assay: as above; conditions: ratio to EC50 of NECA; transfected CHO cells; effect on forskolin-enhanced cAMP via SPAP
T2 sequence (P30542 1-326): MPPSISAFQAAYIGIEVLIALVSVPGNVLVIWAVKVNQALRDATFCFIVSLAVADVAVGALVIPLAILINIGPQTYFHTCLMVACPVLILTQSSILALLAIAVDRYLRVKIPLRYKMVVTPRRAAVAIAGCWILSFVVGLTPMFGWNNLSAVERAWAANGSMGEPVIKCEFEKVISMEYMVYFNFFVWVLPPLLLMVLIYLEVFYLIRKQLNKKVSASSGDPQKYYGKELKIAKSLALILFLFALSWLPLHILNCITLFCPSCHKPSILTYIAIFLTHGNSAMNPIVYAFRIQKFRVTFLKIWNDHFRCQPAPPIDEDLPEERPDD
Protocol: as §1, §2

[3] = molecular target: adenosine 2a (Homo sapiens, UniProt P29274); assay: Agonist activity against adenosine receptor subtypes, CHO cells with cAMP response element/SPAP reporter (basal cAMP); conditions: ratio to EC50 of NECA; transfected CHO cells; effect on basal cAMP via SPAP
Protocol: as §1, §2

Sequence of adenosine 2a (P29274 whole entry): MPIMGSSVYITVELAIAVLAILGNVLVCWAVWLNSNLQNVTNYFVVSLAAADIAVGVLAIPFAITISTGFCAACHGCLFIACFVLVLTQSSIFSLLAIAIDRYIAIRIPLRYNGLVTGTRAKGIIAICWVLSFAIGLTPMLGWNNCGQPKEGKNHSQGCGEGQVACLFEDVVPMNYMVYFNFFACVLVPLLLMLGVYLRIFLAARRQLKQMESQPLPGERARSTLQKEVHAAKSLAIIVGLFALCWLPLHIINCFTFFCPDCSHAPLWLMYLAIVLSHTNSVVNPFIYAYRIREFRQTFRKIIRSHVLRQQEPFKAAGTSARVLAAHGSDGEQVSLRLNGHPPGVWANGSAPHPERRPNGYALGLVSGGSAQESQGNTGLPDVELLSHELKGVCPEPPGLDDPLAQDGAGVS

SMILES	A3 (EC50 values as a ratio of that of NECA) [1]	A1 (EC50 values as a ratio of that of NECA) [2]	A2a (EC50 values as a ratio of that of NECA) [3]
CCn1cnc([C@H]2O[C@@H](n3cnc4c(NCC(c5ccccc5)c5ccccc5)nc(NCCc5cn(C)cn5)nc43)[C@H](O)[C@@H]2O)n1.O=CO.O=CO [Example 31, (2R,3R,4S,5R)-2-{6-(2,2-Diphenyl-ethylamino)-2-[2-(1-methyl-1H-imidazol-4-yl)-ethylamino]-purin-9-yl}-5-(1-ethyl-1H-[1,2,4]triazol-3-yl)-tetrahydro-furan-3,4-diol diformate]	>206	1753.5	8.79
CCn1cnc([C@H]2O[C@@H](n3cnc4c(NCC(c5ccccc5)c5ccccc5)nc(NCCN5CCCCC5)nc43)[C@H](O)[C@@H]2O)n1.O=CO.O=CO [Example 32, (2R,3R,4S,5R)-2-[6-(2,2-Diphenyl-ethylamino)-2-(2-piperidin-1-yl-ethylamino)-purin-9-yl]-5-(1-ethyl-1H-[1,2,4]triazol-3-yl)-tetrahydro-furan-3,4-diol diformate]	>206	1217.4	11.85
CCn1cnc([C@H]2O[C@@H](n3cnc4c(NCC(c5ccccc5)c5ccccc5)nc(NCCc5ccccn5)nc43)[C@H](O)[C@@H]2O)n1.O=CO.O=CO [Example 33, (2R,3R,4S,5R)-2-[6-(2,2-Diphenyl-ethylamino)-2-(2-pyridin-2-yl-ethylamino)-purin-9-yl]-5-(1-ethyl-1H-[1,2,4]triazol-3-yl)-tetrahydro-furan-3,4-diol diformate]	>206	4999.7	34.25
CCn1cnc(C2OC(n3cnc4c(NCC(c5ccccc5)c5ccccc5)nc(NC5CCNC5)nc43)C(O)C2O)n1.O=CO.O=CO [Example 34, (2R,3R,4S,5R)-2-[6-(2,2-Diphenyl-ethylamino)-2-(pyrrolidin-3R-ylamino)-purin-9-yl]-5-(1-ethyl-1H-[1,2,4]triazol-3-yl)-tetrahydro-furan-3,4-diol diformate]	>231	1980.8	10.97
CCC(CC)Nc1nc(NCCc2cn(C)cn2)nc2c1ncn2[C@@H]1O[C@H](c2nnc(C3CC3)o2)[C@@H](O)[C@H]1O.O=CO.O=CO [Example 37]	>173	581.9	6.39
CCC(CC)Nc1nc(NCCN2CCCCC2)nc2c1ncn2C1OC(c2nnc(C3CC3)o2)C(O)C1O.O=CO.O=CO (stereo not drawn) [Example 38]	>173	365.6	45.64
CCC(CC)Nc1nc(NC2CCCC2)nc2c1ncn2[C@@H]1O[C@H](c2nnc(C3CC3)o2)[C@@H](O)[C@H]1O.O=CO.O=CO [Example 39, (2R,3R,4S,5S)-2-[2-Cyclopentylamino-6-(1-ethyl-propylamino)-purin-9-yl]-5-(5-cyclopropyl-[1,3,4]oxadiazol-2-yl)-tetrahydro-furan-3,4-diol diformate]	>173	>=1067	129.5
CCC(CC)Nc1nc(N[C@@H]2CCNC2)nc2c1ncn2[C@@H]1O[C@H](c2nnc(C3CC3)o2)[C@@H](O)[C@H]1O.O=CO.O=CO [Example 40, (2S,3S,4R,5R)-2-(5-Cyclopropyl-[1,3,4]oxadiazol-2-yl)-5-[6-(1-ethyl-propylamino)-2-(pyrrolidin-3R-ylamino)-purin-9-yl]-tetrahydro-furan-3,4-diol diformate]	>173	5084.2	56.86
